Measurements taken from PMC7831380 (ACS chemical biology, 2020).
No end group written: not given here.

Assay: Overall hydrophobicity from UPLC traces
Assay type: physicochemical
Conditions: Supporting Information Figure S1

Row | Substance | overall hydrophobicity compared to wild-type kB1
1 | TRGFEWLDWEFGLPV (also: bicyclic or more (positions not given here)) [[graft1, 16]kB1] | increased overall hydrophobicity
2 | TRWGLPV (also: bicyclic or more (positions not given here)) [[W^mut, 16]kB1] | increased overall hydrophobicity
